# Source: patent US12054526B2, “Polypeptides, nucleic acid molecules, compositions, and related methods” (CHILDREN'S HOSPITAL MEDICAL CENTER, priority 2018, dated 2024)
# “Also recorded” adds a separate entry of the source.
# B1: Myomerger ectodomain: recombinant Myomerger ectodomain (amino acids 26-84) used in Example Set B (protein)
# chain: MPVPLLPMVLRSLLSRLLLPVARLARQHLLPLLRRLARRLSSQDMREALLSCLLFVLSQQQPPDSGEASRVDHSQRKERLGPQK
# Tests used:
# C2C12 myoblasts = assay: Myoblast fusion assay, WT myoblasts; assay type: cell-based
# Excerpt: (§1) To specifically characterize different steps in fusion, we used 3 distinct assays: (i) hemifusion between cells labeled with membrane probe and content probe with unlabeled cells where hemifusion was detected as the appearance of lipid-labeled mononucleated cells without the content probe (FIG. 1A, FIG. 2A, FIG. 1E)); (ii) opening of a fusion pore in fusion between cells labeled with green cell tracker and cells labeled with orange cell tracker was detected as appearance of double-labeled cells (FIG. 1F); and (iii) fusion completion was detected as formation of multinucleated cells. […] Formation of multinucleated myotubes was quantified as the percentage of cell nuclei present in myotubes normalized to the total number of cell nuclei. Hemifusion and fusion pore opening were quantified as a number of double-labeled mononucleated cells normalized to the total number of cell nuclei in the field. For each condition, ≥8 randomly chosen fields of view were imaged. We also analyzed fusion by assessing the number of nuclei in myosin^+ cells. […] Samples were imaged with a Nikon Eclipse inverted microscope with AIR confocal running NIS Elements and images were analyzed with Fiji (SCHINDELIN et al. (2012) “Fiji: an open-source platform for biological-image analysis” Nat Methods, Vol. 9, pp. 676-682, which is herein incorporated by reference in its entirety) […]
# [1] = test system: Myomaker^−/− C2C12 myoblasts; assay: Myoblast fusion assay (myosin+ cells, nuclei count), Myomaker-deficient myoblasts; assay type: cell-based
# Excerpt: as §1
# primary myoblasts = assay: Myoblast fusion assay, Myomerger-deficient primary myoblasts; assay type: cell-based, mouse; details: 0.06% OG in PBS 30 minutes
# Excerpt: as §1
# [2] = test system: Myomerger^−/− C2C12 myoblasts; assay: Myoblast fusion assay (myosin+ cells, nuclei count), Myomerger-deficient myoblasts; assay type: cell-based
# Excerpt: To specifically characterize different steps in fusion, we used 3 distinct assays: (i) hemifusion between cells labeled with membrane probe and content probe with unlabeled cells where hemifusion was detected as the appearance of lipid-labeled mononucleated cells without the content probe (FIG. 1A, FIG. 2A, FIG. 1E)); (ii) opening of a fusion pore in fusion between cells labeled with green cell tracker and cells labeled with orange cell tracker was detected as appearance of double-labeled cells (FIG. 1F); and (iii) fusion completion was detected as formation of multinucleated cells. […] Formation of multinucleated myotubes was quantified as the percentage of cell nuclei present in myotubes normalized to the total number of cell nuclei. Hemifusion and fusion pore opening were quantified as a number of double-labeled mononucleated cells normalized to the total number of cell nuclei in the field. For each condition, ≥8 randomly chosen fields of view were imaged. We also analyzed fusion by assessing the number of nuclei in myosin^+ cells. Here, cells were fixed with 4% paraformaldehyde (PFA)/PBS, permeabilized with 0.02% Triton X-100/PBS, and blocked with 3% BSA/PBS followed by immunostaining with myosin antibodies (MF 20, Developmental Studies Hybridoma Bank, 1:40) for one hour at room temperature. Alexa-Fluor secondary antibody (Invitrogen, 1:250) was incubated for 30 minutes at room temperature. Nuclei were stained with Hoechst (Invitrogen). Samples were imaged with a Nikon Eclipse inverted microscope with AIR confocal running NIS Elements and images were analyzed with Fiji (SCHINDELIN et al. (2012) “Fiji: an open-source platform for biological-image analysis” Nat Methods, Vol. 9, pp. 676-682, which is herein incorporated by reference in its entirety)
# For detergent and recombinant protein application, 2.5×10^4 myoblasts per well of an 8-well μ-slide (Ibidi) were differentiated for 72 hours. 0.06% Octyl-β-Glucoside (OG) (Anatrace) in differentiation media was incubated for 30 minutes at 37° C. Cells were washed with PBS and switched back to normal differentiation media for 5 hours. For primary myoblasts, 3×10^4 cells were plated per well of an 8-well μ-slide (Ibidi) coated with fibronectin (Sigma-Aldrich, 5 μg/cm^2) and differentiated for 36 hours. Cells were treated with 0.06% OG in PBS for 30 minutes at 37° C., washed with PBS and switched back to normal differentiation media for 2 hours. For recombinant proteins, cells were treated with various concentrations of rMBP or rMBP-Myomerger^26-84 (0.5 μM, 1.25 μM, 3 μM, 6.25 μM and 12.5 μM), or 6.25 μM of Magainin 2 (AnaSpec), in differentiation media for 20 hours at 37° C.
# [3] = test system: mouse Red Blood Cells (RBCs); assay: Red blood cell hemolysis (spectrophotometer); assay type: cell-based; details: Myomerger ectodomain at 25 μM
# Method: Myomerger ectodomain (amino acids 26-84) was added to mouse Red Blood Cells (RBCs) and hemolysis was measured using a spectrophotometer (FIG. 9).
# WT C2C12 myoblasts = assay: Synchronized fusion assay (LPC), WT C2C12; assay type: cell-based; details: 50 μM CPZ 60 seconds at LPC removal, assayed after 30 minutes
# Excerpt: (§2) We uncoupled the myoblast fusion stage of myogenic differentiation from the stages that prepare the cells for fusion using a fusion-synchronization approach described previously (GAMAGE et al. (2017) “Insights into the localization and function of myomaker during myoblast fusion” J Biol Chem, Vol. 292, pp. 17272-17289, which is herein incorporated by reference in its entirety; LEIKINA et al. (2013) “Extracellular annexins and dynamin are important for sequential steps in myoblast fusion” J Cell Biol, Vol. 200, pp. 109-123, which is herein incorporated by reference in its entirety). In brief, fusion-committed myoblasts were placed into complete medium supplemented with 150 μM lauroyl LPC (#855475P, Avanti Polar Lipids). 16 h later we washed the cells three times with LPC-free complete medium. […]
# (§3) We labeled C2C12 cells 48 hours after placement in the differentiation medium, and co-plated differently labeled cells in a 1-to-1 ratio. […] Fusion was scored 30 min after LPC removal and thus […] after placing the cells into differentiation medium. […] We kept the cells in LPC-supplemented differentiation medium for 16 hours, washed out LPC with LPC-free medium and 30 minutes later (˜24 hours after placing the cells into differentiation medium) scored fusion. […]
# [4] = test system: Myomerger^−/− C2C12 myoblasts; assay: Synchronized fusion assay (LPC), Myomerger^−/− C2C12; assay type: cell-based; details: 50 μM CPZ 60 seconds at LPC removal, assayed after 30 minutes
# Excerpt: as §2, §3
# Myomaker^−/− C2C12 cells = assay: Synchronized fusion assay (LPC), Myomaker^−/− C2C12; assay type: cell-based; details: 50 μM CPZ 60 seconds at LPC removal, assayed after 30 minutes
# Method: We labeled C2C12 cells 48 hours after placement in the differentiation medium, and co-plated differently labeled cells in a 1-to-1 ratio. […] Fusion was scored 30 min after LPC removal and thus −68 hours after placing the cells into differentiation medium. […] We kept the cells in LPC-supplemented differentiation medium for 16 hours, washed out LPC with LPC-free medium and 30 minutes later (˜24 hours after placing the cells into differentiation medium) scored fusion.
# Formation of multinucleated myotubes was quantified as the percentage of cell nuclei present in myotubes normalized to the total number of cell nuclei. Hemifusion and fusion pore opening were quantified as a number of double-labeled mononucleated cells normalized to the total number of cell nuclei in the field. […]
# [5] = test system: Escherichia coli (E. coli); assay: Bactericidal assay, colony forming units; assay type: cell-based; details: 25 μM, 2 hours
# Method: (§4) Gram-positive bacteria Listeria monocytogenes (Lm) and gram-negative bacteria Escherichia coli (E. coli) were treated with 25 μM recombinant Myomerger ectodomain (labeled as “protein” in FIG. 8) for 2 hours.
# [6] = test system: Listeria monocytogenes (Lm); assay: Bactericidal assay, colony forming units; assay type: cell-based; details: 25 μM, 2 hours
# Method: as §4
# [7] = 0.06% OG 30 minutes on day 3 of differentiation, fusion assessed 5 hours after treatment
# [8] = 6.25 μM Magainin 2, 20 hours on day 3 of differentiation
molecule,measurement,setting,value
"CCCCCCCCO[C@@H]1O[C@H](CO)[C@@H](O)[C@H](O)[C@H]1O [OG, Octyl-β-Glucoside]",fusion,C2C12 myoblasts; OG treatment,did not have an effect
same,fusion,[1]; [7],did not fuse
same,fusion,primary myoblasts,compensate for loss of Myomerger
same,fusion,[2]; [7],obvious fusion events; also recorded: induced fusion
same,percentage of myosin+ cells with 3 or ≥4 nuclei,[2]; OG treatment,increased the percentage of cells with 3 nuclei but also induced formation of myotubes with ≥4 nuclei
Magainin 2 [Mag2],fusion,C2C12 myoblasts; Mag2 treatment,did not have an effect
same,hemolysis,[3],no measurable effect
same,fusion,[1]; [8],had no effect
same,fusion,[2]; [8],partially rescued fusion; also recorded: induced myotube formation
same,percentage of myosin+ cells with 3 or ≥4 nuclei,[2]; Mag2 treatment,increased the percentage of cells with 3 nuclei but also induced formation of myotubes with ≥4 nuclei
"CN(C)CCCN1c2ccccc2Sc2ccc(Cl)cc21 [CPZ, chlorpromazine]",fusion (syncytium formation),WT C2C12 myoblasts,little effect
same,fusion (syncytium formation),[4],reached fusion levels observed for WT myoblasts
same,fusion (syncytium formation),Myomaker^−/− C2C12 cells,No fusion was observed
B1,hemolysis,[3],induced lysis
same,growth (colony forming units),[5],disrupts the growth
same,growth (colony forming units),[6],disrupts the growth
same,effect on Lm compared to E. coli,[6]; gram-positive vs gram-negative,more of an effect
